Reference: patent publication US20250340886A1, “INTRACELLULAR KINASE ASSOCIATED WITH RESISTANCE AGAINST ANTI-TUMOUR IMMUNE RESPONSES, AND USES THEREOF” (iOmx Therapeutics AG, priority 2017, published 2025)
Like-named read-outs stand apart in the source and are kept apart here.

Tests used:
[1] = system: PANC-1-luc cells; experiment: luciferase-based T cell-mediated killing assay of siRNA-transfected PANC-1-luc cells; design: species or system human; details: absence of T cells (viability setting)
Source text: FIG. 2: Luciferase-based cytotoxicity assay for the assessment of T cell-mediated killing of siRNA transfected PANC-1-luc cells.
The inventors describe herein their surprising finding that SIK3 is a gene involved in tumour cell resistance against a cell-mediated immune response. Such role of SIK3 was first identified by the inventors using a high-throughput screening approach—to identify novel genes involved in mechanisms of tumour resistance towards T cell attack—as adapted and expanded from the screening approach developed and described by Khandelwal et al, 2015 (EMBO Mol Med 7:450). Briefly, using a siRNA library, 2514 genes were individually knocked-down in HLA-A2.1+ luciferase-expressing PANC1 cells (PANC1-luc), a pancreatic adenocarcinoma (PDAC) tumour cell line. Each gene's siRNA-transfected PANC1-luc tumour cells were then co-cultured with magnetically purified CD8+ T cells from an HLA-A2.1+ PDAC-derived tumour infiltrating lymphocyte culture (TIL #1). The impact of siRNA-mediated gene knockdown on TIL-mediated killing of tumour cells was measured using a luciferase-based cytotoxicity assay (cytotoxicity setting). In order to exclude those genes whose knockdown intrinsically affects cell viability, complementary screening was performed without the addition of TIL #1 (viability setting). False positive genes were further excluded using a luciferase-independent viability screen.
The present invention is based on the dramatic impact that inhibition of SIK3 of tumour cells determines a reduction of tumour cell survival after co-culture with a cell-mediated immune response. […]
The PANC1-luc cell line was constructed as follows: PANC-1 cells were acquired from the American Type Cell Culture (ATCC). […] After lysis, luciferase assay buffer was added and immediately the luciferase intensity was measured by using the TECAN-Spark microplate reader.

[2] = molecular target: SIK3 (Homo sapiens (Human), UniProt Q9Y2K2); experiment: radiometric protein kinase assay (33PanQinase Activity Assay, ProQinase Free Choice Kinase Assay); format: biochemical; details: read-out: SIK3 IC50 rank
Chain of SIK3 (Q9Y2K2 whole entry): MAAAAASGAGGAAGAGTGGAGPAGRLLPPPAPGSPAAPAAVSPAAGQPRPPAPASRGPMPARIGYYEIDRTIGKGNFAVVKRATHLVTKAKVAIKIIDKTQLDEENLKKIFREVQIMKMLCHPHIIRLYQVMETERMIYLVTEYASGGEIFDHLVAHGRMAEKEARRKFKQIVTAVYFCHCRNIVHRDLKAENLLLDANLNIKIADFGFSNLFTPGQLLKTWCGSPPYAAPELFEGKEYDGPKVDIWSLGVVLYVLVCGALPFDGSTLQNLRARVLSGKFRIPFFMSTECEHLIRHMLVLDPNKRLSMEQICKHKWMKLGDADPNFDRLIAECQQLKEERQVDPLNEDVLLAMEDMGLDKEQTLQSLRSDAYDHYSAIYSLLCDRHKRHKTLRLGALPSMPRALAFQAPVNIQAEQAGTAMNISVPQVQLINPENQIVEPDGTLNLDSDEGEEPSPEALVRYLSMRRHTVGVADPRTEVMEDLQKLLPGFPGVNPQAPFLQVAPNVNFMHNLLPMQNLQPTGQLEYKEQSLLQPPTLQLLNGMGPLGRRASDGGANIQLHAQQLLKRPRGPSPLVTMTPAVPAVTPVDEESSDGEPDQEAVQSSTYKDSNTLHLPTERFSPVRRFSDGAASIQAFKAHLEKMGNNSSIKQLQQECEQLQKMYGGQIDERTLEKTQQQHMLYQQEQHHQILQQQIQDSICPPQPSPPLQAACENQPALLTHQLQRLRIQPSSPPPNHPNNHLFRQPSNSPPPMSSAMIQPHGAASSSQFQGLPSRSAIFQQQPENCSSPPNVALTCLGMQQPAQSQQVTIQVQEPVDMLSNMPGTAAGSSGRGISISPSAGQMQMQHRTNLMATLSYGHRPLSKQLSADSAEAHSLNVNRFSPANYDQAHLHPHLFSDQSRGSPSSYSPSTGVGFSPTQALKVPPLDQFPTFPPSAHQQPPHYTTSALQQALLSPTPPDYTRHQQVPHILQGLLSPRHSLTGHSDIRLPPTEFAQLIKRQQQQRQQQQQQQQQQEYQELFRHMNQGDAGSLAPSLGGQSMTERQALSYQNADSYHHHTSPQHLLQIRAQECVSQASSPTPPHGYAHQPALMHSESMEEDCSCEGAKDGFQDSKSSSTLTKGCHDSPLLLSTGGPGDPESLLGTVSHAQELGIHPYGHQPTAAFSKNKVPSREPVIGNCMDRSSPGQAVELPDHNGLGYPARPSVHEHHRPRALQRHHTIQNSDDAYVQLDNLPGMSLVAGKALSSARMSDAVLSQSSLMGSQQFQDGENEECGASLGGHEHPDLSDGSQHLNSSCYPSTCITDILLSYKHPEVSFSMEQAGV

[3] = molecular target: SIK1 (Homo sapiens (Human), UniProt P57059); experiment: as above; format: biochemical; details: ATP 3.0 uM, read-out: SIK1 IC50 rank
Chain of SIK1 (P57059 whole entry): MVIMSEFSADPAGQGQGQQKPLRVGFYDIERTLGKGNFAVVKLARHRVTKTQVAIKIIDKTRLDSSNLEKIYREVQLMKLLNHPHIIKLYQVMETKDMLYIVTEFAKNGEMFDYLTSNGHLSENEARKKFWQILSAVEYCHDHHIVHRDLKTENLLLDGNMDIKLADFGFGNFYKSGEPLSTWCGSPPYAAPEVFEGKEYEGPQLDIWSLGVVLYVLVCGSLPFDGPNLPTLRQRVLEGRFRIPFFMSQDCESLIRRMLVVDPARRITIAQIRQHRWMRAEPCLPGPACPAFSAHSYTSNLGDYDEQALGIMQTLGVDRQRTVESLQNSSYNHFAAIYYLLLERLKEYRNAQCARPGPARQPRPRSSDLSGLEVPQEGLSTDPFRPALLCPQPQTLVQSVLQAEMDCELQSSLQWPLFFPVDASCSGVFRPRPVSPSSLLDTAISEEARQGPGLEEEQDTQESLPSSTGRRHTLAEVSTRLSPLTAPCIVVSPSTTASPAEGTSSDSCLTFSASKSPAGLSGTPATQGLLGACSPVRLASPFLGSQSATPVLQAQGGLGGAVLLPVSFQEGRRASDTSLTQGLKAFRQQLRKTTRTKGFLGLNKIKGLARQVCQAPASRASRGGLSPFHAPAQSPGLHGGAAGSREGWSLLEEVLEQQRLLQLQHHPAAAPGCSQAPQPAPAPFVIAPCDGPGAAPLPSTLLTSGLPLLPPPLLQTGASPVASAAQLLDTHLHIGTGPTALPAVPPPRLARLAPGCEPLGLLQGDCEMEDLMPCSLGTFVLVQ

[4] = molecular target: SIK2 (Homo sapiens (Human), UniProt Q9H0K1); experiment: as above; format: biochemical; details: ATP 1.0 uM, read-out: SIK2 IC50 rank
Chain of SIK2 (Q9H0K1 whole entry): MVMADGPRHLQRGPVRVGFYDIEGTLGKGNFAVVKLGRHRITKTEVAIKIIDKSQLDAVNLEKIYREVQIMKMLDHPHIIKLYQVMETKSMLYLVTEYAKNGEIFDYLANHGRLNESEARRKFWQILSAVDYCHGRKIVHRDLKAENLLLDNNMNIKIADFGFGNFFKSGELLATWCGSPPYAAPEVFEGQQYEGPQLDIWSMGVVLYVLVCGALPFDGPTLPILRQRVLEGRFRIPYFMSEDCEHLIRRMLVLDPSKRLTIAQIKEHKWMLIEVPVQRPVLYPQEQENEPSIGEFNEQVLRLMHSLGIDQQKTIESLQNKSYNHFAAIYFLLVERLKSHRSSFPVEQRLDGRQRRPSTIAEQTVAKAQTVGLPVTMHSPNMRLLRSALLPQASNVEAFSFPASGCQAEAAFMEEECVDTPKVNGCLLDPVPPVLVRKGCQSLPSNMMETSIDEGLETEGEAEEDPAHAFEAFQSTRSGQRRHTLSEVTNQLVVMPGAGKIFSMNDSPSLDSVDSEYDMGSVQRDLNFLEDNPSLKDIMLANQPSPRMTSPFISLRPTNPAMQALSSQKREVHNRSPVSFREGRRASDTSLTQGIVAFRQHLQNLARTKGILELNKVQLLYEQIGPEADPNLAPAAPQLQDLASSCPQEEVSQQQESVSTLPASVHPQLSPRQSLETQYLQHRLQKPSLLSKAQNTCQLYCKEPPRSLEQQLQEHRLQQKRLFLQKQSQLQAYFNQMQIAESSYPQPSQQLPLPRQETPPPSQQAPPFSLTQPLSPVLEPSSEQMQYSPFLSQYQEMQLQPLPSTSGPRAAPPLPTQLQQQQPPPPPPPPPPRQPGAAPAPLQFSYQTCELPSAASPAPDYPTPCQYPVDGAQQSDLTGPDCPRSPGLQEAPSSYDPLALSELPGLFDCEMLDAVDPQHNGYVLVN

[5] = system: M579-A2-luc tumour cells; experiment: luciferase-based tumour cell viability assay, M579-A2-luc cells with inhibitor and TNF; details: for tumour cell survival (RLU): in combination with 10 ng/mL TNF, about 20 to 100 nM, FIG. 18
[6] = molecular target: SRC (GST-HIS-tag) (Homo sapiens (Human), UniProt P12931); experiment: radiometric protein kinase assay (33PanQinase Activity Assay, ProQinase Free Choice Kinase Assay); format: biochemical; details: indicative IC50, Table 4; ATP 0.3 uM; read-out: SRC IC50 rank
Chain of SRC (GST-HIS-tag) (P12931 whole entry, looked up): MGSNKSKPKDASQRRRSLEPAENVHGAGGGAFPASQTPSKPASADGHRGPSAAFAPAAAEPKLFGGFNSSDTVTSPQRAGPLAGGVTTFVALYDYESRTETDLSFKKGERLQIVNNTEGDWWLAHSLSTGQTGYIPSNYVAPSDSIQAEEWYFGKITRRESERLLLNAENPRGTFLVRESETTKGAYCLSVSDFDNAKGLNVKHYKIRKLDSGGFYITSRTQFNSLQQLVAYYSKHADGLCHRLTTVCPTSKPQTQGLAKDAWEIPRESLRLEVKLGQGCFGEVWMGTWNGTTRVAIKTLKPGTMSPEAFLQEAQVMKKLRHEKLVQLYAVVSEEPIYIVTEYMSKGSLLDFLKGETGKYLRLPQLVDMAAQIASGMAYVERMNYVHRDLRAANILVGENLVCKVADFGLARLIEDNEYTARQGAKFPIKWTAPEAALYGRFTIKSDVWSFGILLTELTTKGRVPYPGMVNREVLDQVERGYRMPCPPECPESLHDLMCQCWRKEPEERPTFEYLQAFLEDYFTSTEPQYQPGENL

[7] = molecular target: ABL1 wt (Homo sapiens (Human), UniProt P00519); experiment: as above; format: biochemical; details: indicative IC50, Table 4; ATP 0.3 uM; read-out: ABL1 IC50 rank
Chain of ABL1 wt (P00519 whole entry): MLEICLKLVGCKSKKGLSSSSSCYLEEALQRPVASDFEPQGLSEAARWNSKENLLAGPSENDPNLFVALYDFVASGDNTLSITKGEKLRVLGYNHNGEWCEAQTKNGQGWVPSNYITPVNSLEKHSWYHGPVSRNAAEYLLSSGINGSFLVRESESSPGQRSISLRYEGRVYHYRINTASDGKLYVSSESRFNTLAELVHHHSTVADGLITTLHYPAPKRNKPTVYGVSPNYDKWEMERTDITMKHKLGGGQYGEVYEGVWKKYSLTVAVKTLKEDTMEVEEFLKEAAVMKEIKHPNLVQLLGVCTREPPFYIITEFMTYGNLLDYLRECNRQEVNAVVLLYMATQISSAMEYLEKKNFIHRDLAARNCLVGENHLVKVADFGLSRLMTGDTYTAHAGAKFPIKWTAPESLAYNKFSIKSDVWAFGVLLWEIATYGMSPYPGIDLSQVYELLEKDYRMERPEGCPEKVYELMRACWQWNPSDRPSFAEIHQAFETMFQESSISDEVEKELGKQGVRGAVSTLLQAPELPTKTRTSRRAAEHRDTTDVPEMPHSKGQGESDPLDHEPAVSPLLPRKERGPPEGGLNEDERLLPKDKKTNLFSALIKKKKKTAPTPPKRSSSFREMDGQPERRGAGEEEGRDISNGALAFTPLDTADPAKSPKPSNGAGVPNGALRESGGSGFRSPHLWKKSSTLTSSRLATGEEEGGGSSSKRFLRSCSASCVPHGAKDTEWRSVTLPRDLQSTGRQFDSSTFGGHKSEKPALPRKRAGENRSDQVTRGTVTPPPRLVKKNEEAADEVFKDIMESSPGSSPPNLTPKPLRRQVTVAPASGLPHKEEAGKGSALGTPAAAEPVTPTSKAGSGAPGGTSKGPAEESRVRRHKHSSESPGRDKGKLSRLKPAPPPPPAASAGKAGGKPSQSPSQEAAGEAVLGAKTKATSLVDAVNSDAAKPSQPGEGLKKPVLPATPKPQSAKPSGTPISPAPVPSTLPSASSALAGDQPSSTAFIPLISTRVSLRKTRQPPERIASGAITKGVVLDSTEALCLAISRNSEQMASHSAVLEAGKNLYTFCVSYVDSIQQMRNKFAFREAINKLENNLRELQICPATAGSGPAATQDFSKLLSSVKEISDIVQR

[8] = indicative IC50, Table 2A, ATP 1.0 uM

Molecule	cell viability of tumour cells [1]	IC50 [2, 8] [nM]	IC50 ([3]; indicative IC50, Table 2A) [nM]	IC50 ([4]; indicative IC50, Table 2A) [nM]	tumour cell survival (RLU) [5]	further results
s2: SIK3 siRNA, sequence GAACAGCGACGAUGCUUAU, Dharmacon D-004779-05 (listed as RNA, chemistry not given here)	slight reduction of cell viability	–	–	–	–	–
s3: SIK3 siRNA, sequence GCACUAACCUGCUUGGGUA, Dharmacon D-004779-06 (listed as RNA, chemistry not given here)	slight reduction of cell viability	–	–	–	–	–
Cc1nc(Nc2ncc(C(=O)Nc3ccccc3)s2)cc(N2CCN(CCO)CC2)n1 [Compound A11, ((6-(4-(2-hydroxyethyl)piperazin-1-yl)-2-methylpyrimidin-4-yl)amino)-N-phenylthiazole-5-carboxamide]	–	> 1000	> 100	> 100	remains unaffected	–
CCOc1cccc(Cl)c1NC(=O)c1cnc(Nc2cc(N3CCN(CCO)CC3)nc(C)n2)s1 [Compound B8, N-(2-chloro-6-ethoxyphenyl)-2-((6-(4-(2-hydroxyethyl)piperazin-1-yl)-2-methylpyrimidin-4-yl)amino)thiazole-5-carboxamide]	–	–	–	–	–	IC50 [2]: > 5000 nM; IC50 [6]: < 100 nM; IC50 [7]: < 100 nM; IC50 ([3]; indicative IC50, Table 4): > 1000 nM; IC50 ([4]; indicative IC50, Table 4): > 1000 nM; cytotoxicity of M579 A2 cells in combination with TNF compared to inhibitor alone ([5]; TNF 10 ng/mL, inhibitor between about 10 and 100 nM, FIG. 17): fails to exhibit cytotoxicity
Cc1nc(Nc2ncc(C(=O)Nc3ccccc3S(=O)(=O)C(C)C)s2)cc(N2CCN(CCO)CC2)n1 [Compound A6, 2-((6-(4-(2-hydroxyethyl)piperazin-1-yl)-2-methylpyrimidin-4-yl)amino)-N-(2-(propane-2-sulfonyl)phenyl)thiazole-5-carboxamide]	–	> 1000	> 1000	> 100	remains unaffected	–
s1: SIK3 siRNA, sequence GCGCCAGGCUUUAUCUUAU, Dharmacon D-004779-01 (listed as RNA, chemistry not given here)	slight reduction of cell viability	–	–	–	–	–
